One assay concerns ring stage parasites (Pf). The experiment in a line: Parasite lactate dehydrogenase (LDH) growth assay (Parasite Assay, PfLDH Assay). It is filed as cell-based, P. falciparum. As to conditions: Plasmodium falciparum, 72 h, Table 3; 72 hours growth, LDH readout; read-out: EC50.
The EC50 is the concentration that produces a half-maximal response. With `CC1(C)CC(=O)N(C[C@H]2C[C@@H]2C(=O)NC2CC(C)(C)Oc3c(Cl)cc(Cl)cc32)C(=N)N1` (some centres unmarked) [Example 97A], the EC50 was determined as 180 nM.

`CC1(C)CC(=O)N(C[C@H]2C[C@@H]2C(=O)NC2CC(C)(C)Oc3c(C(F)(F)F)ccc(F)c32)C(=N)N1` (some centres unmarked) [Example 99]: the EC50 amounted to 130 nM.

On to `CC1(C)CC(=O)N(C[C@H]2C[C@@H]2C(=O)N[C@H]2CC(C)(C)Oc3ccc(C(F)(F)F)cc32)C(=N)N1` [Example 100], for which the EC50 was 170 nM.

`COCC[C@H]([C@H]1C[C@@H]1C(=O)N[C@H]1CC(C)(C)Oc2ccc(Cl)cc21)N1C(=N)NC(C)(C)CC1=O` [Example 101]: the EC50 turned out to be 2.9 nM.

Consider `CC[C@@]1(C)CC(=O)N([C@H](c2cncc(F)c2)[C@H]2C[C@@H]2C(=O)N[C@@H]2c3ccccc3OCC2(C)C)C(=N)N1` [Example 102A], for which the EC50 came out at 0.8 nM.

In the case of `CC[C@@]1(C)CC(=O)N(C(c2cncc(F)c2)[C@H]2C[C@@H]2C(=O)N[C@@H]2c3ccccc3OCC2(C)C)C(=N)N1` (some centres unmarked) [Example 102B], the EC50 came to 2.5 nM.

Regarding `COCC[C@H]([C@H]1C[C@@H]1C(=O)NC1CC(C)(C)Oc2c(Cl)cc(Cl)cc21)N1C(=N)NC(C)(C)CC1=O` (some centres unmarked) [Example 106A], the 50% effective concentration (EC50) turned out to be 7.4 nM.

With `COCC[C@H]([C@H]1C[C@@H]1C(=O)N[C@H]1CC(C)(C)Oc2cccc(OC(F)(F)F)c21)N1C(=N)NC(C)(C)CC1=O` [Example 107A], the EC50 was 2.1 nM.

With `COCC[C@H]([C@H]1C[C@@H]1C(=O)N[C@@H]1CC(C)(C)Oc2cccc(OC(F)(F)F)c21)N1C(=N)NC(C)(C)CC1=O` [Example 107B], the EC50 is 11 nM.

As for `COCC[C@H]([C@H]1C[C@@H]1C(=O)N[C@@H]1CC(C)(C)Oc2ccc(C(F)(F)F)cc21)N1C(=N)NC(C)(C)CC1=O` [Example 110A], the EC50 is 21 nM.

For the molecule `COCC[C@H]([C@H]1C[C@@H]1C(=O)N[C@H]1CC(C)(C)Oc2ccc(C(F)(F)F)cc21)N1C(=N)NC(C)(C)CC1=O` [Example 110B], the EC50 is 7.2 nM.

On to `COCC[C@H]([C@H]1C[C@@H]1C(=O)NC1CC(C)(C)Oc2c(F)cccc21)N1C(=N)NC(C)(C)CC1=O` (some centres unmarked) [Example 111A], for which the EC50 was 24 nM.

On to `COCC[C@H]([C@H]1C[C@@H]1C(=O)NC1CC(C)(C)Oc2c(Cl)cccc21)N1C(=N)NC(C)(C)CC1=O` (some centres unmarked) [Example 112A], for which the EC50 was 18 nM.

`COCC[C@H]([C@H]1C[C@@H]1C(=O)N[C@@H]1CC(C)(C)Oc2c(F)cc(F)cc21)N1C(=N)NC(C)(C)CC1=O` [Example 113A]: the EC50 came out at 19 nM.

Turning to `COCC[C@H]([C@H]1C[C@@H]1C(=O)N[C@H]1CC(C)(C)Oc2c(F)cc(F)cc21)N1C(=N)NC(C)(C)CC1=O` [Example 113B], the EC50 amounted to 7.5 nM.

For the molecule `COCC[C@H]([C@H]1C[C@@H]1C(=O)N[C@@H]1CC(C)(C)Oc2c(C(F)(F)F)ccc(F)c21)N1C(=N)NC(C)(C)CC1=O` [Example 114A], the EC50 stood at 89 nM.

With `COCC[C@H]([C@H]1C[C@@H]1C(=O)N[C@H]1CC(C)(C)Oc2c(C(F)(F)F)ccc(F)c21)N1C(=N)NC(C)(C)CC1=O` [Example 114B], the EC50 turned out to be 5.1 nM.

Consider `CC1(C)CC(=O)N([C@H](c2cccnc2)[C@H]2C[C@@H]2C(=O)N[C@@H]2CC(C)(C)Oc3c(C(F)(F)F)ccc(F)c32)C(=N)N1` [Example 115A], for which the EC50 is 6.6 nM.

Turning to `CC1(C)CC(=O)N([C@H](c2cccnc2)[C@H]2C[C@@H]2C(=O)N[C@H]2CC(C)(C)Oc3c(C(F)(F)F)ccc(F)c32)C(=N)N1` [Example 115B], the EC50 came to 1 nM.

As to `COCC[C@H]([C@H]1C[C@@H]1C(=O)N[C@H]1CC(C)(C)Oc2cccc(Cl)c21)N1C(=N)NC(C)(C)CC1=O` [Example 116A], the half-maximal effective concentration (EC50) was 0.8 nM.

Turning to `COCC[C@H]([C@H]1C[C@@H]1C(=O)N[C@@H]1CC(C)(C)Oc2cccc(Cl)c21)N1C(=N)NC(C)(C)CC1=O` [Example 116B], the EC50 turned out to be 18 nM.

`CC1(C)CC(=O)N(C[C@H]2C[C@@H]2C(=O)N[C@H]2CC(C)(C)Oc3cccc(OC(F)(F)F)c32)C(=N)N1` [Example 118]: the EC50 came to 63 nM.

Consider `CC1(C)CC(=O)N(C[C@H]2C[C@@H]2C(=O)N[C@H]2CC(C)(C)Oc3cccc(Cl)c32)C(=N)N1` [Example 119], for which the EC50 was 26 nM.

As for `CC1(C)CC(=O)N([C@H](c2cccnc2)[C@H]2C[C@@H]2C(=O)N[C@H]2CC(C)(C)Oc3ccc(Cl)cc32)C(=N)N1` [Example 120], the EC50 was 1 nM.

For the molecule `CC1(C)CC(=O)N([C@H](c2cccnc2)[C@H]2C[C@@H]2C(=O)NC2CC(C)(C)Oc3c(Cl)cccc32)C(=N)N1` (some centres unmarked) [Example 121A], the EC50 turned out to be 2.5 nM.

Consider `CC1(C)CC(=O)N([C@H](c2cccnc2)[C@H]2C[C@@H]2C(=O)NC2CC(C)(C)Oc3c(F)cc(F)cc32)C(=N)N1` (some centres unmarked) [Example 122A], for which the EC50 was 2.3 nM.

For the molecule `CC[C@]1(C)CC(=O)N([C@H](CCOC)[C@H]2C[C@@H]2C(=O)N[C@H]2CC(C)(C)Oc3ccc(C)cc32)C(=N)N1` [Example 123], the EC50 stood at 2 nM.

On to `CC[C@]1(C)CC(=O)N([C@H](CCOC)[C@H]2C[C@@H]2C(=O)N[C@H]2CC(C)(C)Oc3ccc(Cl)cc32)C(=N)N1` [Example 124], for which the EC50 is 0.8 nM.

For `CC1(C)CC(=O)N(C[C@H]2C[C@@H]2C(=O)NC2CC(C)(C)Oc3ccc(OC(F)(F)F)cc32)C(=N)N1` (some centres unmarked) [Example 125A], the EC50 came out at 231 nM.

For the molecule `COCC[C@H]([C@H]1C[C@@H]1C(=O)NC1CC(C)(C)Oc2ccc(OC(F)(F)F)cc21)N1C(=N)NC(C)(C)CC1=O` (some centres unmarked) [Example 126A], the EC50 came out at 4.7 nM.

For `Cc1ccc2c(c1)[C@@H](NC(=O)[C@H]1C[C@@H]1CN1C(=N)NC(C)(C)CC1=O)CC(C)(C)O2` [Example 128], the EC50 amounted to 280 nM.

Consider `CC[C@]1(C)CC(=O)N([C@H](CCOC)[C@H]2C[C@@H]2C(=O)NC2CC(C)(C)Oc3ccc(OC(F)(F)F)cc32)C(=N)N1` (some centres unmarked) [Example 129A], for which the EC50 was 1.3 nM.

`COCC[C@H]([C@H]1C[C@@H]1C(=O)NC1CC2(CCC2)Oc2ccccc21)N1C(=N)NC(C)(C)CC1=O` (some centres unmarked) [Example 131A]: the EC50 came out at 6.8 nM.

As to `COCC[C@H]([C@H]1C[C@@H]1C(=O)N[C@H]1CC(C)(C)Oc2ccc(C)cc21)N1C(=N)NC(C)(C)CC1=O` [Example 132], the EC50 came out at 6.7 nM.

Regarding `CC1(C)CC(=O)N(C[C@H]2C[C@@H]2C(=O)N[C@H]2CC3(CCC3)Oc3ccccc32)C(=N)N1` [Example 135], the EC50 amounted to 190 nM.

Consider `Cc1cc2c(cc1Cl)[C@@H](NC(=O)[C@H]1C[C@@H]1CN1C(=N)NC(C)(C)CC1=O)CC(C)(C)O2` [Example 136], for which the EC50 is 160 nM.

Take `COCC[C@H]([C@H]1C[C@@H]1C(=O)N[C@@H]1CC(C)(C)Oc2cc(C)c(Cl)cc21)N1C(=N)NC(C)(C)CC1=O` [Example 137A]: the EC50 worked out at 12 nM.

Turning to `COCC[C@H]([C@H]1C[C@@H]1C(=O)N[C@H]1CC(C)(C)Oc2cc(C)c(Cl)cc21)N1C(=N)NC(C)(C)CC1=O` [Example 137B], the EC50 worked out at 6.4 nM.

`COCC[C@H]([C@H]1C[C@@H]1C(=O)N[C@H]1CC(C)(C)Oc2cc(C)c(C)cc21)N1C(=N)NC(C)(C)CC1=O` [Example 138A]: the EC50 was determined as 7.4 nM.

With `COCC[C@H]([C@H]1C[C@@H]1C(=O)N[C@@H]1CC(C)(C)Oc2cc(C)c(C)cc21)N1C(=N)NC(C)(C)CC1=O` [Example 138B], the EC50 amounted to 18 nM.

On to `CC1C[C@H](NC(=O)[C@H]2C[C@@H]2CN2C(=N)NC(C)(C)CC2=O)c2cc(F)ccc2O1` (some centres unmarked) [Example 139A], for which the EC50 is 99 nM.

On to `CC1(C)CC(=O)N(C[C@H]2C[C@@H]2C(=O)N[C@H]2CC(C3CC3)Oc3ccccc32)C(=N)N1` (some centres unmarked) [Example 140A], for which the EC50 was 220 nM.

The same assay, now with this note: Table 3; 72 hours growth, LDH readout; read-out: EC50.
For the molecule `CC1(C)CC(=O)N(C[C@H]2C[C@@H]2C(=O)NC2CC(C)(C)Oc3c(Cl)cc(Cl)cc32)C(=N)N1` (some centres unmarked) [Example 97B], the EC50 was determined as 220 nM.

For the molecule `COCC[C@H]([C@H]1C[C@@H]1C(=O)NC1CC(C)(C)Oc2c(Cl)cc(Cl)cc21)N1C(=N)NC(C)(C)CC1=O` (some centres unmarked) [Example 106B], the EC50 turned out to be 10 nM.

For `COCC[C@H]([C@H]1C[C@@H]1C(=O)NC1CC(C)(C)Oc2c(F)cccc21)N1C(=N)NC(C)(C)CC1=O` (some centres unmarked) [Example 111B], the EC50 came to 15 nM.

Take `COCC[C@H]([C@H]1C[C@@H]1C(=O)NC1CC(C)(C)Oc2c(Cl)cccc21)N1C(=N)NC(C)(C)CC1=O` (some centres unmarked) [Example 112B]: the EC50 was 9.4 nM.

Regarding `CC1(C)CC(=O)N([C@H](c2cccnc2)[C@H]2C[C@@H]2C(=O)NC2CC(C)(C)Oc3c(Cl)cccc32)C(=N)N1` (some centres unmarked) [Example 121B], the EC50 is 2 nM.

For the molecule `CC1(C)CC(=O)N([C@H](c2cccnc2)[C@H]2C[C@@H]2C(=O)NC2CC(C)(C)Oc3c(F)cc(F)cc32)C(=N)N1` (some centres unmarked) [Example 122B], the EC50 was determined as 2.2 nM.

Consider `CC1(C)CC(=O)N(C[C@H]2C[C@@H]2C(=O)NC2CC(C)(C)Oc3ccc(OC(F)(F)F)cc32)C(=N)N1` (some centres unmarked) [Example 125B], for which the EC50 is 160 nM.

`COCC[C@H]([C@H]1C[C@@H]1C(=O)NC1CC(C)(C)Oc2ccc(OC(F)(F)F)cc21)N1C(=N)NC(C)(C)CC1=O` (some centres unmarked) [Example 126B]: the EC50 is 8.4 nM.

With `CC[C@]1(C)CC(=O)N([C@H](CCOC)[C@H]2C[C@@H]2C(=O)NC2CC(C)(C)Oc3ccc(OC(F)(F)F)cc32)C(=N)N1` (some centres unmarked) [Example 129B], the EC50 amounted to 2.5 nM.

Turning to `COCC[C@H]([C@H]1C[C@@H]1C(=O)NC1CC2(CCC2)Oc2ccccc21)N1C(=N)NC(C)(C)CC1=O` (some centres unmarked) [Example 131B], the EC50 amounted to 6.1 nM.

For the molecule `CC1C[C@H](NC(=O)[C@H]2C[C@@H]2CN2C(=N)NC(C)(C)CC2=O)c2cc(F)ccc2O1` (some centres unmarked) [Example 139B], the EC50 was determined as 130 nM.

The values are drawn from patent publication US20240131028A1, “CHEMOVACCINATION AGAINST PLASMODIUM INFECTION WITH SELECTIVE PLASMEPSIN X INHIBITORS” (Merck Sharp & Dohme LLC, priority 2021, published 2024).
